Converted amounts (≈) assume the structure as drawn. The source made the active and inactive calls. The rule behind the calls is not given here. Where a SMILES comes first, the peptide text is derived from it.
Legend:
[1] = Hemolytic activity in rat erythrocytes at 1000 ug/ml incubated for 1 hr; type: toxicity, cell-based, Erythrocyte; conditions: at 1000 µg/mL, read-out: Activity
[2] = tested on: Staphylococcus aureus; experiment: Inhibition of biofilm formation in Staphylococcus aureus at MIC incubated for 24 hrs by crystal violet staining based assay; type: functional
[3] = tested on: Staphylococcus aureus; experiment: Bactericidal activity against Staphylococcus aureus at 2 times MIC measured after 6 hrs by time kill kinetic assay; type: functional, organism-based
[4] = tested on: Acinetobacter baumannii; experiment: Antibacterial activity against multidrug resistant Acinetobacter baumannii 4 incubated for 18 hrs by visual inspection method; type: functional
[5] = tested on: Staphylococcus aureus; experiment: Antibacterial activity against methicillin resistant Staphylococcus aureus 3 incubated for 18 hrs by visual inspection method; type: functional
[6] = tested on: Acinetobacter baumannii; experiment: Antibacterial activity against multidrug resistant Acinetobacter baumannii 2 incubated for 18 hrs by visual inspection method; type: functional
[7] = tested on: Cell membrane; experiment: Induction of cell membrane damage in Escherichia coli assessed as change in morphology by measuring roughened membrane at 4 times MIC incubated for 5 hrs by SEM analysis; type: cell membranes
[8] = tested on: Escherichia coli; experiment: Antibacterial activity against Escherichia coli ATCC 25922 incubated for 18 hrs in presence of 100 mM NaCl by visual inspection method; type: functional
[9] = tested on: Cell membrane; experiment: Disruption of outer membrane integrity in Escherichia coli assessed as increase in fluorescence intensity by measuring NPN uptake at 1 to 4 times MIC by fluorescence based analysis; type: cell membranes; conditions: TDE = time-dependent effect
[10] = tested on: Escherichia coli; experiment: Antibacterial activity against Escherichia coli ATCC 25922 incubated for 18 hrs in presence of 50 mM NaCl by visual inspection method; type: functional
[11] = tested on: Acinetobacter baumannii; experiment: Antibacterial activity against multidrug resistant Acinetobacter baumannii 3 incubated for 18 hrs by visual inspection method; type: functional
[12] = tested on: Staphylococcus aureus; experiment: Inhibition of biofilm formation in Staphylococcus aureus at 16 times MIC incubated for 24 hrs by crystal violet staining based assay; type: functional
[13] = tested on: Escherichia coli; experiment: Antibacterial activity against ESBL Escherichia coli 3 incubated for 18 hrs by visual inspection method; type: functional
[14] = tested on: Cell membrane; experiment: Induction of cell membrane damage in Escherichia coli at 4 times MIC incubated for 30 mins by PI staining based confocal laser scanning microscopic analysis; type: cell membranes

CC[C@H](C)[C@H](NC(=O)[C@H](Cc1ccccc1)NC(=O)[C@@H](N)Cc1c[nH]c2ccccc12)C(=O)N[C@H](C(=O)N[C@@H](Cc1c[nH]c2ccccc12)C(=O)N[C@@H](Cc1c[nH]cn1)C(=O)N[C@@H](Cc1c[nH]c2ccccc12)C(=O)N[C@@H](CCCNC(=N)N)C(=O)N[C@@H](CCCCN)C(=O)N[C@H](C(=O)N1CCC[C@H]1C(=O)N1CCC[C@H]1C(=O)N[C@@H](CCCCN)C(N)=O)[C@@H](C)CC)[C@@H](C)CC (H-WFIIWHWRKIPPK-NH2)
hemolysis at 1 h, 1000 ug/ml [1]: 10.8%
inhibition (INH) [2]: 12.29%
Activity [3]: Active
MIC [4]: 7.5 µg/mL (≈ 4.15 µM)
MIC [5]: 7.5 µg/mL (≈ 4.15 µM)
MIC [6]: 7.5 µg/mL (≈ 4.15 µM)
Activity [7]: Active
MIC [8]: 15 µg/mL
Activity [9]: Tde
MIC [10]: 15 µg/mL
MIC [11]: 7.5 µg/mL (≈ 4.15 µM)
inhibition (INH) [12]: >90%
MIC [13]: 15 µg/mL (≈ 8.3 µM)
Activity [14]: Active

Reference: ChEMBL document CHEMBL5614417, “Discovery of AMPs from random peptides via deep learning-based model and biological activity validation” (Eur J Med Chem, 2024)
